We go through one compound from EP1611892A2, “Pharmaceutical compositions comprising drospirenone” (Schering Aktiengesellschaft, priority 2000, dated 2001).

Holding throughout (type): physicochemical
A short description of data set [1]: Chemical stability under acid and alkaline conditions.
Data set [2] in a line: In vitro dissolution from a tablet preparation (USP XXIII Paddle Method). Conditions: drospirenone in micronized form; rapid dissolution defined as at least 70% over about 30 minutes from a 3 mg tablet in 900 ml of water at 37°C, 50 rpm.
The nature of data set [3]: Solubility in water and aqueous buffers. The note with it: in water and aqueous buffers at various pH values.

As to `C[C@]12CCC(=O)C=C1[C@@H]1C[C@@H]1[C@H]1[C@@H]3[C@@H]4C[C@@H]4[C@@]4(CCC(=O)O4)[C@@]3(C)CC[C@@H]12` [drospirenone, 6β,7β;15β;16β-dimethylene-3-oxo-17α-preg-4-ene-21,17-carbolactone], in data set [1] (acid conditions), the “stability under acid conditions” value is “rearranged to an inactive isomer”. Also, the “stability under alkaline conditions” value in data set [1] (alkaline conditions) was “hydrolysed”. The “dissolution of the active compound from the composition in vitro” value in data set [2] is “rapid dissolution”. Moreover, the solubility entry in data set [3] was “sparingly soluble”.
